This note sets out measurements from US20220274980A1, “PHARMACOLOGICAL INHIBITORS OF THE ENL YEATS DOMAIN” (priority 2019, published 2022).

In data set [1] the target is T1, ENL localization to chromatin of target gene promoters (Homo sapiens, UniProt Q03111).
T1 construct: 11 cells; endogenous in cells; host or cells: MV4;11
T1 sequence (Q03111 1-559): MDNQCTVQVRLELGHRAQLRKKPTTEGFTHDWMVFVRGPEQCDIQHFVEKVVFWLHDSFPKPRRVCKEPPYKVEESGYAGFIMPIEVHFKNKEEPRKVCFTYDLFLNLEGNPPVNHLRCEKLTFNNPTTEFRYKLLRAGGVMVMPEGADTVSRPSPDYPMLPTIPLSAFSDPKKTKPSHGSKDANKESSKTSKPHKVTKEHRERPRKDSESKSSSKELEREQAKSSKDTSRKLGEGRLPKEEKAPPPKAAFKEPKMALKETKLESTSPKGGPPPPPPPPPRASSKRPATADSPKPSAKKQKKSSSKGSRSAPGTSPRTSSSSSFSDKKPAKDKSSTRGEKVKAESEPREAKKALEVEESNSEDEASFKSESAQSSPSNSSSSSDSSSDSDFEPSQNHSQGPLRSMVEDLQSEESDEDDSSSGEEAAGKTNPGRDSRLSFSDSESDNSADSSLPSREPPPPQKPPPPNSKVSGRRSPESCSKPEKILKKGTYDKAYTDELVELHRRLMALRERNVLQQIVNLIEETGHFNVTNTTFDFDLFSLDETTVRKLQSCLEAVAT
As to the kind of experiment: ENL ChIP-qPCR in MV4;11 cells. It counts as cell-based. Particulars: HOX intergenic region as negative control locus. The protocol:
ChIP-qPCR. Chromatin immunoprecipitation (ChIP)-qPCR of ENL was performed in MV4; 11 cells using 50 million cells per treatment. Crosslinking was performed in batches of 50 million cells in 50 mL tissue culture media by addition of 1/10 volume of 10× crosslinking solution (11% formaldehyde, 50 mM HEPES pH 7.3, 100 mM NaCl, 1 mM EDTA pH 8.0, 0.5 mM EGTA ph 8.0). After 10 min of crosslinking at room temperature, formaldehyde was quenched with 125 mM glycine, cells were then washed three times in PBS pH 7.4, flash frozen in liquid nitrogen, and stored at −80° C. Frozen pellets were thawed on ice, resuspended in cold lysis buffer 1 (LB1; 5 mL per 50 million cells; 50 mM HEPES pH 7.3, 140 mM NaCl, 1 mM EDTA, 10% glycerol, 0.5% NP-40, and 0.25% Triton X-100, Roche protease inhibitor cocktail), and rotated for 10 minutes at 4° C. LB1 was removed and pelletswere resuspended in cold lysis buffer 2 (LB2; 5 mL per 50 million cells; 10 mM Tris-HCl pH 8.0, 200 mM NaCl, 1 mM EDTA pH 8.0 and 0.5 mM EGTA pH 8.0, Roche protease inhibitor cocktail) and rotated for 10 minutes at 4° C. LB2 was removed and pellets were resuspended in cold sonication buffer (1.5 mL per 50 million cells; 50 mM HEPES pH 7.3, 140 mM NaCl, 1 mM EDTA, 1 mM EGTA, 1% Triton X-100, 0.1% Na-deoxycholate, 0.1% SDS, Roche protease inhibitor cocktail). […] Results were quantified as percentage of the input sample.

Data set [2] in a line: Half-life in human liver microsomes. It counts as in vitro ADME. The settings on record: read-out: t1/2 (min) human liver microsomes.
Data set [3] in a line: Half-life in mouse liver microsomes. It counts as in vitro ADME. The settings on record: read-out: t1/2 (min) mouse liver microsomes.

Each structure is given as a SMILES string.

Consider `O=C(NC1CCC1)c1ccc2nc(-c3cccc(NS(=O)(=O)NCCN4CCCCC4)c3)cn2c1` [Compound 93], for which the “localization of ENL to chromatin of target gene promoters by ChIP-qPCR” value in data set [1] is “prevents localization of ENL to chromatin of target gene promoters”. The half-life in data set [2] was 22.6 min; in data set [3] it was 9.98 min.
